Data taken from publication PMC12752606, “METTL10‐Mediated PIAS3 Methylation Links Purine Metabolism to Gastric Cancer Progression” (Advanced Science, 2025).
pIC50: −log10 of the molar value.

Experiments:
Test in all cases: Off-target methyltransferase profiling (MTase-Glo)
Format in all cases: biochemical
DNMT1 = DNMT1 (Homo sapiens, UniProt P26358)
Description: (§1) To evaluate the off‐target effects of LZQ‐02‐023‐01 on methyltransferase activity, a panel of enzymes was assessed using the MTase‐Glo Methyltransferase Assay (Promega), following the manufacturer's instructions. The assay was performed by ICE Bioscience Inc. Briefly, LZQ‐02‐023‐01 was serially diluted 4‐fold in DMSO to generate a 10‐point concentration gradient, and the resulting solutions were dispensed into 384‐well white assay plates using an Echo acoustic liquid handler (Labcyte). Plates were centrifuged at 1000 rpm for 1 min to ensure even compound distribution. Following a 10‐min preincubation at 25 °C, 2 µL of a substrate solution containing S‐adenosylmethionine (SAM) and the specific methyltransferase substrate (Table S7, Supporting Information) was added to each well. After a brief centrifugation, plates were incubated at 25 °C for 180 min to allow the enzymatic methylation reaction to proceed. Subsequently, 1 µL of MTase‐Glo reagent was added, followed by centrifugation and incubation at 25 °C for 45 min. Then, 5 µL of MTase‐Glo detection solution was introduced into each well, and the plates were incubated for an additional 45 min at 25 °C after centrifugation.
(§2) Luminescence signals were directly proportional to methyltransferase activity, were recorded using a microplate reader (BMG LABTECH). Percent inhibition was calculated by normalizing luminescence intensities of compound‐treated wells to DMSO‐treated controls, and IC50 values were calculated using GraphPad Prism 8 software.

DOT1L = DOT1L (Homo sapiens, UniProt Q8TEK3)
DOT1L, sequence (Q8TEK3 whole entry, species assumed): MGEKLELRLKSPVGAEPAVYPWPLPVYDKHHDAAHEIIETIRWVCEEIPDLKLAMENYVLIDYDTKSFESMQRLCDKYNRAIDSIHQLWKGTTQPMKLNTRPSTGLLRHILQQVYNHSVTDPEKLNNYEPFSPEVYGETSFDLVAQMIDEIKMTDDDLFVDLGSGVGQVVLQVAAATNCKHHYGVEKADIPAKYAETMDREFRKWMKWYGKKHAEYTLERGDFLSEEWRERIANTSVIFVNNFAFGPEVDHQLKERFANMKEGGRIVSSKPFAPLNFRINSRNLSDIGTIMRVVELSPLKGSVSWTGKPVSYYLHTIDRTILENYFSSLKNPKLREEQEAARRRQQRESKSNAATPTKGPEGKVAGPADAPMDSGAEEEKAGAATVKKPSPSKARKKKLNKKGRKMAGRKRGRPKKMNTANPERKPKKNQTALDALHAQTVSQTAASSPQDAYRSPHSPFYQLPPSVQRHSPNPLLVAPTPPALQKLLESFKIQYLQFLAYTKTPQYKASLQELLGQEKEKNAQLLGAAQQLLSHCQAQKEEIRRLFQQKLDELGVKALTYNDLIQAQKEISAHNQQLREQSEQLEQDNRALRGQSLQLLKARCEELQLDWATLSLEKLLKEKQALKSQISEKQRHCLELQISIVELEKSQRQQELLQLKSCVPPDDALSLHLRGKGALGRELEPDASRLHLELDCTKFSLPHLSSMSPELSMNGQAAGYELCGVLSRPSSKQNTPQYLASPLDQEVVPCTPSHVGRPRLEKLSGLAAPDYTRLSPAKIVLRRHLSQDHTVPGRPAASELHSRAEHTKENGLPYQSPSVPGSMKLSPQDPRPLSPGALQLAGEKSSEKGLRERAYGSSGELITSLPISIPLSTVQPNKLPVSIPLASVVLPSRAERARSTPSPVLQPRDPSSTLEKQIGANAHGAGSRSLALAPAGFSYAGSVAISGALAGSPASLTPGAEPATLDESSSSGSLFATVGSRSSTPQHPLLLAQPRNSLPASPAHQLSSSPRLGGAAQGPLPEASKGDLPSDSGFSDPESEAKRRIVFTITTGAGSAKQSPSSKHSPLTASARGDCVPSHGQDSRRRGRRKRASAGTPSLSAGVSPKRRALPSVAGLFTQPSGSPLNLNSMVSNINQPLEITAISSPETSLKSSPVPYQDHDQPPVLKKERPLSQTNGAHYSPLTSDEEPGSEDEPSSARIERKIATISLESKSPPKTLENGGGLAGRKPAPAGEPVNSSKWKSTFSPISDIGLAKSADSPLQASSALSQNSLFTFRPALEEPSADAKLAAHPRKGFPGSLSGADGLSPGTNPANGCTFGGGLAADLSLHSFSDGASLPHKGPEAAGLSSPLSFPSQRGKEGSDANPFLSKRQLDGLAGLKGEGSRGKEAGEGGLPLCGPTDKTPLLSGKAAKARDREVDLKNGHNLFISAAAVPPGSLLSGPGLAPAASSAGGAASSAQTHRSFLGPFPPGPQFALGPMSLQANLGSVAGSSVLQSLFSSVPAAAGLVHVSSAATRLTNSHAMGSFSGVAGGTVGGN
Description: as §1, §2

EZH1 = EZH1 (Homo sapiens, UniProt Q92800)
Description: as §1, §2

EZH2 = EZH2 (Homo sapiens, UniProt Q15910)
Description: as §1, §2

EZH2 [A677G] = EZH2 [A677G] (Homo sapiens, UniProt Q15910, A677G)
Description: as §1, §2

EZH2 [Y641F] = EZH2 [Y641F] (Homo sapiens, UniProt Q15910, Y641F)
Description: as §1, §2

EZH2 [Y641H] = EZH2 [Y641H] (Homo sapiens, UniProt Q15910, Y641H)
Description: as §1, §2

EZH2 [Y641N] = EZH2 [Y641N] (Homo sapiens, UniProt Q15910, Y641N)
Description: as §1, §2

GLP = GLP (Homo sapiens, UniProt Q9H9B1)
GLP, sequence (Q9H9B1 whole entry): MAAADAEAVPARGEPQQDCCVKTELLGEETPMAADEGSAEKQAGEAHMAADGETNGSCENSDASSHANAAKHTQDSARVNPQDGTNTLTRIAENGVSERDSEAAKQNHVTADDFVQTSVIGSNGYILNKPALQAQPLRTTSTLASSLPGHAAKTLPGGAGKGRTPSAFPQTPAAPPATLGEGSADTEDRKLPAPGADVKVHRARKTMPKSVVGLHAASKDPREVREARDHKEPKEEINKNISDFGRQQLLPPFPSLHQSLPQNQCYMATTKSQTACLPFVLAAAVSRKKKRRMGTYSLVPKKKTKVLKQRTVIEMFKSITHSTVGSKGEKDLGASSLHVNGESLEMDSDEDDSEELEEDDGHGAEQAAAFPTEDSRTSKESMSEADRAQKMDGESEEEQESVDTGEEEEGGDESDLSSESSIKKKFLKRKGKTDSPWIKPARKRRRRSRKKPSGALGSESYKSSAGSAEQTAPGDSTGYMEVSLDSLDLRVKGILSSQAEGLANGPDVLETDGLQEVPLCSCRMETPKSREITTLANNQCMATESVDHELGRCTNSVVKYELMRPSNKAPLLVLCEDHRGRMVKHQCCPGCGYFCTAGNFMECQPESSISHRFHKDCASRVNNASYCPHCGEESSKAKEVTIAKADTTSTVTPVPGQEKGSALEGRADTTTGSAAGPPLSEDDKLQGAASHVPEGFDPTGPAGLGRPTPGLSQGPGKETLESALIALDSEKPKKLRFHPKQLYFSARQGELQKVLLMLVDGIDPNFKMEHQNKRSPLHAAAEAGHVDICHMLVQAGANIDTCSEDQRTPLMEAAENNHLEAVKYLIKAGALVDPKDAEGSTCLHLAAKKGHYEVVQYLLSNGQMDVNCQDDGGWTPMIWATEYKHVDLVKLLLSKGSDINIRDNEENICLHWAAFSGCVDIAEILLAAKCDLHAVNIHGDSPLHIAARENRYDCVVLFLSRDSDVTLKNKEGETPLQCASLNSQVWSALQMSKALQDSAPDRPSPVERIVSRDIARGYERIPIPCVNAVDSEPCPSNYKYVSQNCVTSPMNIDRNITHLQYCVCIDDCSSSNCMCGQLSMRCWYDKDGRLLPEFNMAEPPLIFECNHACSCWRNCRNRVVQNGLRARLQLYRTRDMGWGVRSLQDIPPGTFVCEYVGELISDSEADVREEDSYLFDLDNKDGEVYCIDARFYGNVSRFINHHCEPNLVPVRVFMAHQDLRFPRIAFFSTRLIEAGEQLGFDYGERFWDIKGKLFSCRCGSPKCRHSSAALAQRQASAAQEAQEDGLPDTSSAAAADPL
Description: as §1, §2

METTL3/14 = METTL3/14 (Homo sapiens, UniProt Q86U44)
Description: as §1, §2

MLL3 = MLL3 (Homo sapiens, UniProt Q8NEZ4)
Description: as §1, §2

NSD1 = NSD1 (Homo sapiens, UniProt Q96L73)
Description: as §1, §2

NSD2 = NSD2 (Homo sapiens, UniProt O96028)
Description: as §1, §2

NSD3 = NSD3 (Homo sapiens, UniProt Q9BZ95)
Description: as §1, §2

PRMT4 = PRMT4 (Homo sapiens, UniProt Q86X55)
Description: as §1, §2

PRMT5 = PRMT5 (Homo sapiens, UniProt O14744)
Description: as §1, §2

PRMT5+MTA = PRMT5+MTA (Homo sapiens, UniProt O14744)
Description: as §1, §2

PRMT8 = PRMT8 (Homo sapiens, UniProt Q9NR22)
PRMT8, sequence (Q9NR22 whole entry, species assumed): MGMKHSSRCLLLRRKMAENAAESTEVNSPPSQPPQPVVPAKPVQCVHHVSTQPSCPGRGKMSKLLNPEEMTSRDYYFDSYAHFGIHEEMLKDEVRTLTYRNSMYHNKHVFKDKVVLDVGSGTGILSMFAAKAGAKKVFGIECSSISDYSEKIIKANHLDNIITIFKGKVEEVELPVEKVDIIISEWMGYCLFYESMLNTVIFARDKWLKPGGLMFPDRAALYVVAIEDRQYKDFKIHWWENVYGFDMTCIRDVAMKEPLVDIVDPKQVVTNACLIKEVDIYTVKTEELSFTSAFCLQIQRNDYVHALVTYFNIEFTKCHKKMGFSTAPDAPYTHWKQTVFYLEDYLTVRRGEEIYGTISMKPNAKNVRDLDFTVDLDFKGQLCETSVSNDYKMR
Description: as §1, §2

SETD1A = SETD1A (Homo sapiens, UniProt O15047)
Description: as §1, §2

SETD1B = SETD1B (Homo sapiens, UniProt Q9UPS6)
Description: as §1, §2

SETD2 = SETD2 (Homo sapiens, UniProt Q9BYW2)
Description: as §1, §2

SMYD2 = SMYD2 (Homo sapiens, UniProt Q9NRG4)
Description: as §1, §2

SUV39H2 = SUV39H2 (Homo sapiens, UniProt Q9H5I1)
Description: as §1, §2

SUV420H1 = SUV420H1 (Homo sapiens, UniProt Q4FZB7)
Description: as §1, §2

DNMT1, sequence (P26358 whole entry, species assumed): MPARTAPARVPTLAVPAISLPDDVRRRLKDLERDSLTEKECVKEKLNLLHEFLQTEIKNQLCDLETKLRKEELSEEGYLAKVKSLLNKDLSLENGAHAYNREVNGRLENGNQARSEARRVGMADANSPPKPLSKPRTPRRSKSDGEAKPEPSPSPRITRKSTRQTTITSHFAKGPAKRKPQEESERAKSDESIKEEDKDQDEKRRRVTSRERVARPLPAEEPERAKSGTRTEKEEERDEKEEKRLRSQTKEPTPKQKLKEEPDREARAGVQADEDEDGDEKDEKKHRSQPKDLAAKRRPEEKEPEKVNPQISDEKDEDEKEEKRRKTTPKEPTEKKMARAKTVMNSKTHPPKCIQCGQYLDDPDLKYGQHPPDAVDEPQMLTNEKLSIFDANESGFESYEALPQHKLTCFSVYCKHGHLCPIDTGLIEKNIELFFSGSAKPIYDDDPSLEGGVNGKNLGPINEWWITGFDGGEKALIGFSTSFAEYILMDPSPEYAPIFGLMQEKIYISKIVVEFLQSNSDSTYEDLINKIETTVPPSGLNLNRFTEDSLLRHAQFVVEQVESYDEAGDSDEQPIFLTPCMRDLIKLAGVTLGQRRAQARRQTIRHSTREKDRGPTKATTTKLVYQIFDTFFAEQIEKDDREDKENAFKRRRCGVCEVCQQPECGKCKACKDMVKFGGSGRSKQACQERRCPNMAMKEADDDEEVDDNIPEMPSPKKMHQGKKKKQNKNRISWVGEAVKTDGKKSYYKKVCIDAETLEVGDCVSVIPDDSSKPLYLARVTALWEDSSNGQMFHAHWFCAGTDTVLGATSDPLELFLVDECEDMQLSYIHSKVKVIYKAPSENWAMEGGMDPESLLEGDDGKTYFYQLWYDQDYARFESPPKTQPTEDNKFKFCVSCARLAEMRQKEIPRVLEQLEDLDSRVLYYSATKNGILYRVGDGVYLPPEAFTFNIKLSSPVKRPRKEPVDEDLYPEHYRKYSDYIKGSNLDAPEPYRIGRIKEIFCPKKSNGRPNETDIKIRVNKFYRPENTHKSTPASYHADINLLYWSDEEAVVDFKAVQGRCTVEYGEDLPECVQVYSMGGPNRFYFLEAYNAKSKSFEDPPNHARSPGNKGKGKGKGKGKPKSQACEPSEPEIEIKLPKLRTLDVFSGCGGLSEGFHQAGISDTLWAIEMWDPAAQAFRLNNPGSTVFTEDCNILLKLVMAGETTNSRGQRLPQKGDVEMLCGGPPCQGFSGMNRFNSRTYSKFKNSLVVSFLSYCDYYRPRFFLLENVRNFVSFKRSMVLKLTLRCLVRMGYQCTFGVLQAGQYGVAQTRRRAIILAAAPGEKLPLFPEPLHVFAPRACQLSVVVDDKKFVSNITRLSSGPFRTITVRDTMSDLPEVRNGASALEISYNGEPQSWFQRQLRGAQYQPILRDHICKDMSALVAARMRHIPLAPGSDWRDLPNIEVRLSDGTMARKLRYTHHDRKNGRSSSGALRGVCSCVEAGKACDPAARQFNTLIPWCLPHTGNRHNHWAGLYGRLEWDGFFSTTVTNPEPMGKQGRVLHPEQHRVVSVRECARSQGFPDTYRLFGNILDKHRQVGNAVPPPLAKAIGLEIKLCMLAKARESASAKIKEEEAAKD

`Cc1ccc(Nc2ncc3c(n2)N(C)C(=O)N(c2cccc(N)c2)C3)cn1` [LZQ-02-023-01, Three‐(3‐aminophenyl)‐1‐methyl‐7‐((6‐methylpyridin‐3‐yl)amino)‐3,4‐dihydropyrimido [4,5‐d] pyrimidin‐2 (1H)‐one] showed a pIC50 (DNMT1) of 4.62, a pIC50 (DOT1L) of 4.88 and a pIC50 (EZH1) of 4.54. For the same molecule, the pIC50 (EZH2) was 4.83, the pIC50 (EZH2 [A677G]) was 4.86 and the pIC50 (EZH2 [Y641F]) was 5.53. For the same molecule, the pIC50 (EZH2 [Y641H]) was 5.46, the pIC50 (EZH2 [Y641N]) was 4.91 and the pIC50 (GLP) was 4.62. For the same molecule, the pIC50 (METTL3/14) was 4.77, the pIC50 (MLL3) was 5.02 and the pIC50 (NSD1) was 4.88. The pIC50 (NSD2) was 5.02, the pIC50 (NSD3) was 5.13 and the pIC50 (PRMT4) was 4.72. It also gave a pIC50 (PRMT5) of 4.88, a pIC50 (PRMT5+MTA) of 4.86 and a pIC50 (PRMT8) of 4.57. For the same molecule, the pIC50 (SETD1A) was 4.73, the pIC50 (SETD1B) was 5.05 and the pIC50 (SETD2) was 4.73. The pIC50 (SMYD2) was 5.04, the pIC50 (SUV39H2) was 4.96 and the pIC50 (SUV420H1) was 4.88.
